Where “and” joins values, the source holds several entries; their conditions need not be identical. Identical values can stand only once.
Key:
Test in all cases: PHD Enzymatic Assay
[1] = molecular target: Egl nine homolog 1 (Homo sapiens, UniProt Q9GZT9)
Protocol: (§1) PHD1,2,3 activity was measured utilizing homogeneous time-resolved fluroescence energy transfer techology by detecting the trans-4-hydroxylatio of HIF-1alpha residue pro564 in biotin-hHIR-1alpha(558-574)(Biotin-DLEMLAPYIPMDDDFQL)peptide substrate resulting in a recognition by the Europium-tagged Von Hippel Lindau, Elongin B and Dlongin C heterotrimeric complex (VCB-Eu complex)

[2] = molecular target: Prolyl hydroxylase EGLN2 (Homo sapiens, UniProt Q96KS0)
Protocol: as §1

[3] = molecular target: Prolyl hydroxylase EGLN3 (Homo sapiens, UniProt Q9H6Z9)
Protocol: as §1

Sequence of Prolyl hydroxylase EGLN3 (Q9H6Z9 whole entry): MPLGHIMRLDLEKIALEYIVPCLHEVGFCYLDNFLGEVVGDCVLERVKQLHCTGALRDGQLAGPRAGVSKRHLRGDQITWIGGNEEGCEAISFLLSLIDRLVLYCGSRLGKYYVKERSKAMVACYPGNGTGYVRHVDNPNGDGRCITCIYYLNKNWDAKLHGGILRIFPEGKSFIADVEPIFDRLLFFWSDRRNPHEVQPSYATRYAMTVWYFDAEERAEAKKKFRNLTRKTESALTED
Sequence of Egl nine homolog 1 (Q9GZT9 whole entry): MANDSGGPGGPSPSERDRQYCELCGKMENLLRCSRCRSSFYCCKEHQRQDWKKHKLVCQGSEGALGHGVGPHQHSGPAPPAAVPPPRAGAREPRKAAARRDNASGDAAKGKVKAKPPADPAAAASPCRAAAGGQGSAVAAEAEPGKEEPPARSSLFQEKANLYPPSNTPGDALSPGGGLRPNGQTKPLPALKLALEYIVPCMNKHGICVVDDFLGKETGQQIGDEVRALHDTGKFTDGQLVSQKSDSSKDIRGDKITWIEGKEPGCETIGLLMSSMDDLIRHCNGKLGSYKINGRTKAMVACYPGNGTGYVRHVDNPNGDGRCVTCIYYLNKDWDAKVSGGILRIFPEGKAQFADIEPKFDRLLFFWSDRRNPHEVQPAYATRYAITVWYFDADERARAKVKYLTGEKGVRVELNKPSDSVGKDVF
Sequence of Prolyl hydroxylase EGLN2 (Q96KS0 whole entry): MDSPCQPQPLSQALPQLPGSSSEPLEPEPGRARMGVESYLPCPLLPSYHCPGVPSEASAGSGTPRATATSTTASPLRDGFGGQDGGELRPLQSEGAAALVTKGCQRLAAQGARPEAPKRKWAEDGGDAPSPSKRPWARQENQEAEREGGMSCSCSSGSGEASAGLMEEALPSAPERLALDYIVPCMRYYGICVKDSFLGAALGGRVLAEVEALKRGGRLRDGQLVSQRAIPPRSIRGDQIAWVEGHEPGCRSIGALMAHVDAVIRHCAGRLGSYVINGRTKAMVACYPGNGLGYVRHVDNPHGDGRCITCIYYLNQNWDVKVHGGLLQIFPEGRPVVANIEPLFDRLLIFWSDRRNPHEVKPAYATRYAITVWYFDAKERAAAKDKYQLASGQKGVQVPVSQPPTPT

| Compound | IC50 [1] | IC50 [2] | IC50 [3] |
| --- | --- | --- | --- |
| CC(=O)N[C@@H](Cc1ccc2ccccc2c1)C(=O)NCC(=O)NCc1ccc2c(c1)c(O)c(C(=O)NCC(=O)O)c(=O)n2C [PHD Inhibitor, 12{4,1,2}] | 41.9 nM | 5.1 nM | 13.5 nM |
| Cn1c(=O)c(C(=O)NCC(=O)O)c(O)c2cc(CNC(=O)[C@@H](Cc3ccccc3)NC(=O)[C@@H](Cc3ccccc3)NC(=O)c3ccccc3)ccc21 [PHD Inhibitor, 12{2,4,1}] | – | 22 nM and 8.5 nM | 20 nM and 5.3 nM |
| CC(=O)N[C@@H](CCCCN)C(=O)NCc1ccc2c(c1)c(O)c(C(=O)NCC(=O)O)c(=O)n2C [PHD Inhibitor, 8{7}] | 409 nM | – | – |
| Cn1c(=O)c(C(=O)NCC(=O)O)c(O)c2cc(CNC(=O)[C@H](Cc3ccccc3)NC(=O)[C@H](Cc3ccccc3)NC(=O)CCN3CCOCC3)ccc21 [PHD Inhibitor, 12{1,5,3}] | 2920 nM | 95 nM | 165 nM |
| CC(=O)N[C@H](Cc1ccccc1)C(=O)NCc1ccc2c(c1)c(O)c(C(=O)NCC(=O)O)c(=O)n2C [PHD Inhibitor, 8{2}] | 112 nM | – | – |
| CC(=O)N[C@H](Cc1ccc2ccccc2c1)C(=O)N[C@H](Cc1ccccc1)C(=O)NCc1ccc2c(c1)c(O)c(C(=O)NCC(=O)O)c(=O)n2C [PHD Inhibitor, 12{2,1,2}] | 93.8 nM | 13.5 nM | 6.4 nM |
| CC(C)C[C@@H](NC(=O)C(C)(C)C)C(=O)N[C@H](Cc1ccccc1)C(=O)NCc1ccc2c(c1)c(O)c(C(=O)NCC(=O)O)c(=O)n2C [PHD Inhibitor, 12{2,6,4}] | 113 nM | 14.5 nM | 16.8 nM |
| CC(C)C[C@H](NC(=O)[C@H](Cc1cccc2ccccc12)NC(=O)C(C)(C)C)C(=O)NCc1ccc2c(c1)c(O)c(C(=O)NCC(=O)O)c(=O)n2C [PHD Inhibitor, 12{3,1,4}] | 1100 nM | 32 nM | 77 nM |
| CC(=O)N[C@@H](CC(=O)O)C(=O)NCc1ccc2c(c1)c(O)c(C(=O)NCC(=O)O)c(=O)n2C [PHD Inhibitor, 8{6}] | 138 nM | – | – |
| CC(=O)N[C@@H](CO)C(=O)NCc1ccc2c(c1)c(O)c(C(=O)NCC(=O)O)c(=O)n2C [PHD Inhibitor, 8{5}] | 265 nM | – | – |
| Cn1c(=O)c(C(=O)NCC(=O)O)c(O)c2cc(CNC(=O)[C@@H](Cc3ccccc3)NC(=O)C[C@H](Cc3ccccc3)NC(=O)c3ccccc3)ccc21 [PHD Inhibitor, 12{2,3,1}] | 1560 nM | 49 nM | 40 nM |
| CC(=O)NCC(=O)NCc1ccc2c(c1)c(O)c(C(=O)NCC(=O)O)c(=O)n2C [PHD Inhibitor, 8{4}] | 293 nM | – | – |
| Cn1c(=O)c(C(=O)NCC(=O)O)c(O)c2cc(CNC(=O)[C@@H](Cc3ccccc3)NC(=O)[C@@H](Cc3ccccc3)NC(=O)C(C)(C)C)ccc21 [PHD Inhibitor, 12{2,3,4}] | 86.4 nM and 104 nM | 12.9 nM and 14.6 nM | 12.6 nM and 13.2 nM |

Second part, the compound after the results:

| IC50 [1] | IC50 [2] | IC50 [3] | Compound |
| --- | --- | --- | --- |
| 308 nM | 60.8 nM | 18.8 nM | Cn1c(=O)c(C(=O)NCC(=O)O)c(O)c2cc(CNC(=O)[C@@H](Cc3ccccc3)NC(=O)[C@@H](Cc3ccc4ccccc4c3)NC(=O)C(C)(C)C)ccc21 [PHD Inhibitor, 12{2,1,4}] |
| 35 nM | 4.3 nM | 4.5 nM | CC(=O)N[C@@H](Cc1ccc2ccccc2c1)C(=O)N[C@@H](Cc1ccccc1)C(=O)NCc1ccc2c(c1)c(O)c(C(=O)NCC(=O)O)c(=O)n2C [PHD Inhibitor, 12{1,1,2}] |
| 67.5 nM | 11 nM | 16.2 nM | CC(=O)N[C@@H](CC(C)C)C(=O)N[C@H](Cc1ccccc1)C(=O)NCc1ccc2c(c1)c(O)c(C(=O)NCC(=O)O)c(=O)n2C [PHD Inhibitor, 12{2,6,2}] |
| 44.8 nM | 7.6 nM | 8.9 nM | CC(=O)N[C@@H](Cc1ccccc1)C(=O)N[C@H](Cc1ccccc1)C(=O)NCc1ccc2c(c1)c(O)c(C(=O)NCC(=O)O)c(=O)n2C [PHD Inhibitor, 12{2,5,2}] |
| 37.4 nM and 90.2 nM | 7.2 nM and 12.2 nM | 11.7 nM and 13.5 nM | CC(=O)N[C@H](Cc1ccccc1)C(=O)N[C@H](Cc1ccccc1)C(=O)NCc1ccc2c(c1)c(O)c(C(=O)NCC(=O)O)c(=O)n2C [PHD Inhibitor, 12{2,3,2}] |
| 482 nM | – | – | CC(=O)N[C@@H](Cc1ccccc1)C(=O)NCc1ccc2c(c1)c(O)c(C(=O)NCC(=O)O)c(=O)n2C [PHD Inhibitor, 8{1}] |
| 546 nM | – | – | CC(=O)NCc1ccc2c(c1)c(O)c(C(=O)NCC(=O)O)c(=O)n2C [PHD Inhibitor, 5] |
| 521 nM | – | – | CC(=O)N[C@H](CC(C)C)C(=O)NCc1ccc2c(c1)c(O)c(C(=O)NCC(=O)O)c(=O)n2C [PHD Inhibitor, 8{3}] |
